# From patent US20190117657A1, “METHOD OF INHIBITING HIGH FAT DIET-RELATED CONDITIONS” (South Australian Health and Medical Research Institute …, priority 2016, published 2019)
# Key:
# [1] = biological target: MNK1 (Homo sapiens, UniProt Q9BUB5); conditions: cited from earlier work
# [2] = tested on: MNKs; experiment: eIF4E phosphorylation (P-eIF4E immunoblot) in 3T3-L1 cells as read-out of MNK activity; format: cell-based
# Description: Similar data obtained in three replicate experiments.
# The term “MNK inhibitor” as used herein is intended to refer to any compound that reduces the biological activity of MNK1 (including reducing the biological activity of one or both of splice variants MNK1 a and MNK1b) and/or MNK2 (including reducing the biological activity of one or both of splice variants MNK2a and MNK2b), including by reducing the amount of MNK1 and/or MNK2 expressed. For example, the MNK inhibitor may be a small organic molecule (also referred to as a “small molecule” herein), a peptide antagonist, an inhibitory antibody or fragment thereof, an interfering nucleotide molecule, an aptamer or other MNK inhibitor that inhibits the expression or biological activity as would be understood by those skilled in the art. The biological activity of MNK1 and MNK2 can be measured in a variety of ways, for example, by measuring phosphorylation of its substrate eIF4E to P-eIF4E using any suitable method known to those skilled in the art, for example, by performing an immunoblot or ELISA utilising a specific anti-P-eIF4E antibody, for example, the anti-phospho eIF4E (Ser209) antibody distributed by Merck Millipore, Catalogue No. 07-823 (Merck Millipore, Billerica, Mass., United States of America). […] Those skilled in the art will be aware of how to conduct suitable controls when measuring P-eIF4E levels. The MNK1 and/or MNK2 bioactivity can otherwise be measured using a cellular assay that can detect levels of MNK1 and/or MNK2 bioactivity. Antibodies that specifically detect phosphorylated MNK could also be used, for example, anti-P-MNK1 (Phospho-Mnk1 (Thr197/202) Antibody #2111; Cell Signaling Technology Inc, Danvers, Mass., United States of America). Additionally, those skilled in the art will appreciate that the MNK inhibitors should be safe for use for its intended purpose.
# Tissues were harvested in RIPA lysis buffer containing 50 mM TrisHCl, pH 7.4, 150 mM NaCl, 1% Triton X-100, 0.1% sodium deoxycholate, 0.1% sodium dodecyl sulfate, 1 mM ethylenediaminetetraaacteic acid (EDTA), 50 mM β-glycerolphosphate, 0.5 mM NaVO3, 0.1% 2-mercaptoethanol and protease inhibitors (Roche). After lysis, insoluble material was removed by centrifugation at 12,000 g for 10 min at 4° C. Protein content was determined by the Bradford protein assay (Bio-Rad). Immunoblotting was performed as described in Liu et al. (2014). Blots were visualised using a LI-COR Odyssey® Quantitative Imaging System. Primary antibodies as indicated in Table 5 were from Cell Signaling Technologies, except for anti-P-eIF4E (Merck Millipore). Secondary antibodies were obtained from Thermo Fisher Scientific Inc. (Waltham, Mass., United States of America) and used at 1:20,000 dilution.
# MNKs are the only kinases known to phosphorylate eIF4E, and accordingly, the phosphorylation of eIF4E (P-eIF4E) provides a direct read-out of MNK biological activity.
# (§1) Since eIF4E is only phosphorylated by the MNKs, its phosphorylation status is a reliable read-out of intracellular MNK activity. […] MNK2 is the main MNK in 3T3-L1 cells and in adipose tissue (Moore et al., 2016). In additional studies, tests were conducted to assess the effect of the MNK-I2 inhibitor on the induction of differentiation markers in 3T3-L1 cells.
# [3] = tested on: 3T3-L1 cells; experiment: Induction of adipogenic gene mRNAs in differentiating 3T3-L1 cells (RT-qPCR); format: cell-based
# Experimental: Total RNA was isolated from tissues (frozen at the time of sampling) using Trizol reagent (Sigma-Aldrich) according to the manufacturer's instructions. RNA concentrations were determined by absorbance at 260 nm, while quality and integrity were evaluated via 260/230 and 260/280 ratios using a NanoDrop spectrophotometer (Thermo Fisher Scientific). RT-real time PCR amplification was carried out using the ImProm-II Reverse Transcription System (A3800; Promega, Madison, Wis., United States of America) with random primers following the manufacturer's protocol. Subsequently, real-time quantitative (q) PCR was performed using primer sequences described in Supplemental Table S1 of Moore CEJ et al., 2016, the content of which is hereby incorporated by reference in its entirety). The comparative CT method was used to measure the amplification of target mRNA levels compared with […] (B2M) mRNA. In FIG. 1A, the relative amount of each transcript was determined using the equation 2^−dCt, where dCt=(Ct target gene-Ct ref gene), and Ct=cycle threshold.
# (§2) For induction of 3T3-L1 (fibroblast) cell differentiation, pre-adipocytes were grown to 2 days post-confluence in DMEM supplemented with 10% FBS (day 0) and the medium was changed to DMEM supplemented with 10% FBS, insulin (167 nM), dexamethasone (0.5 μM), isobutylmethylxanthine (IBMX) (0.5 mM) and rosiglitazone (2 μM). After 48 h, the medium was replaced with medium containing DMEM supplemented with 10% (v/v) FBS and 167 nM insulin. On day 4, after inducing differentiation, and thereafter, the cells were cultured in DMEM with 10% FBS. The maintenance medium was changed every 48 h until the cells were utilised for experimentation (9 days from the initiation of differentiation).
# In order to study the role of MNK2 in adipocyte differentiation, 3T3-L1 cells were used in a similar manner to that described in Example 1. […]
# [4] = biological target: T1, MNK2 (Mus musculus, UniProt Q8CDB0); experiment: P-eIF4E in MNK1-KO mouse embryonic fibroblasts (reports on MNK2); format: cell-based
# T1 construct: endogenous in cells; host or cells: MNK1-KO mouse embryonic fibroblasts
# T1 sequence (Q8CDB0 whole entry): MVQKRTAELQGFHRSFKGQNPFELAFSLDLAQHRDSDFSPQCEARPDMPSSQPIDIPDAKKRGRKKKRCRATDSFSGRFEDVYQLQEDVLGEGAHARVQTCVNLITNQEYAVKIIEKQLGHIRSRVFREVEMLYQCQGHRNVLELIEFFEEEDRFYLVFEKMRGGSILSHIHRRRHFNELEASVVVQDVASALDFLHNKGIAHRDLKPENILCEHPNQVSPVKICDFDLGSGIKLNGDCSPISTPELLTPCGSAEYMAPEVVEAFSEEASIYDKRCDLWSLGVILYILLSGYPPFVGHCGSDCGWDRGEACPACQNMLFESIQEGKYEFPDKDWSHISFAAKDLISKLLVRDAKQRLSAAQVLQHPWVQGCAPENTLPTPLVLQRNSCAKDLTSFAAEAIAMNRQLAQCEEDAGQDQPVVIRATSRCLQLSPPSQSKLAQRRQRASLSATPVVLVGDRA
# [5] = biological target: T2, MNK1 (Mus musculus, UniProt O08605); experiment: P-eIF4E in MNK2-KO mouse embryonic fibroblasts (reports on MNK1); format: cell-based; conditions: 1 h
# T2 construct: endogenous in cells; host or cells: MNK2-KO mouse embryonic fibroblasts
# T2 sequence (O08605 whole entry): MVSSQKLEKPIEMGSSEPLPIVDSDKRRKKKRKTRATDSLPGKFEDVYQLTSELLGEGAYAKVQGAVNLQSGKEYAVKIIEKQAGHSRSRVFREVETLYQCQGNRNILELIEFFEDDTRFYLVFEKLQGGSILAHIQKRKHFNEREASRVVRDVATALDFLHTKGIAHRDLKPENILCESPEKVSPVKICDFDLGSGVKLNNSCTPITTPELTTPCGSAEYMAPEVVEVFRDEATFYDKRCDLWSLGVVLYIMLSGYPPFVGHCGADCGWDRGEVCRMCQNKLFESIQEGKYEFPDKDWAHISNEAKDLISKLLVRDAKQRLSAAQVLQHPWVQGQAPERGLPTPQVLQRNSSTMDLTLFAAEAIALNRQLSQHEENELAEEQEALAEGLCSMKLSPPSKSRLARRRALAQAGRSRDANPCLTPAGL
# Description: FIG. 16 provides the results of studies conducted on mouse embryonic fibroblasts (MEFs): MNK1-KO (A) or MNK2-KO (B). […] The graphs show combined data from three experiments. *, p<0.05 vs. untreated control; ****, p<0.0001, vs. untreated control.
# In some embodiments, the MNK inhibitor may preferably show selectivity and/or increased inhibitory potency to MNK2. A simple test for assessing the selectivity of an MNK inhibitor can be conducted by treating suitable cells from animals in which either MNK1 or MNK2 has been knocked out (eg mouse embryonic fibroblasts (MEFs) from MNK1-KO and MNK2-KO mice) with the MNK inhibitor. Since, in MNK1-KO MEFs, eIF4E phosphorylation depends on MNK2, and vice versa, monitoring the effect of different concentrations of an MNK inhibitor of interest on P-eIF4E levels in MNK-KO MEFs reports on the ability of that compound to inhibit MNK2 (MNK1-KO MEFs) or MNK1 (MNK2-KO MEFs).
# as §1
# [6] = tested on: other protein kinases; conditions: cited from earlier work
# [7] = tested on: 3T3-L1 cells; experiment: Lipid accumulation in differentiating 3T3-L1 cells (Oil Red O / triglyceride); format: cell-based; conditions: 10 μM, 3T3-L1 cells
# Experimental: as §2
# Assessment of intracellular triglyceride levels was performed using Oil Red O staining as described by others (Smith et al., 1988). Briefly, on day 9 of differentiation of the 3T3-L1 cells were fixed in 10% formalin for 1 hour. […] For quantification, cells were washed extensively with water to remove unbound dye, and 1 ml isopropanol was added to the stained 6-well culture plate. After 5 min, the absorbance of the oil red extract at 510 nm was measured, with an increased absorbance indicative of an increased lipid level within the cells.
# The amount of tissue-released triglyceride (TAG) was measured using a Triglyceride Quantification Kit (Abcam, ab65336).
# Sequence of MNK1 (Homo sapiens, UniProt Q9BUB5) (Q9BUB5 whole entry, species assumed): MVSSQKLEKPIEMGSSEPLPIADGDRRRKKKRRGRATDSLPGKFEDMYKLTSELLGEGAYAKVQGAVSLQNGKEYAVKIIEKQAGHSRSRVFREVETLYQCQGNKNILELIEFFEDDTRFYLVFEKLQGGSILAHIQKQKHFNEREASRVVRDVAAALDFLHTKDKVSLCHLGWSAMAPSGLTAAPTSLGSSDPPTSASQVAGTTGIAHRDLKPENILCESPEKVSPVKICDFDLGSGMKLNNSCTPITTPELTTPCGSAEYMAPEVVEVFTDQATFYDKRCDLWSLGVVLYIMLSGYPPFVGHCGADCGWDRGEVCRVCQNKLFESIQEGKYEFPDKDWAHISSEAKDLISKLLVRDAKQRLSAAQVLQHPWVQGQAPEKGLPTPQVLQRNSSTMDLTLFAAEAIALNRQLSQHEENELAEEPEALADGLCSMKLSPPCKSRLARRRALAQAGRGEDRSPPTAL
Compound,"Comments (ability to inhibit MNKs, eIF4E phosphorylation) [2]",also measured
COC(=O)[C@@]1(C)C[C@@]2(C)O[C@]1(C)n1c3ccccc3c3c4c(c5c6ccccc6n2c5c31)C(=O)NC4 [CGP052088],,IC50 [1]: 70 nM
Cc1c(C(=O)NCCc2c[nH]cn2)sc2ncnc(Nc3ccc(F)cc3OC(C)C)c12 [JX-MNK-7S],Good activity,
COc1cc(F)ccc1Nc1ncnc2sc(C(=O)N3CCCCC3)c(C)c12 [MNK-5J],inactive,
COc1cc(F)ccc1Nc1ncnc2sc(C(=O)N3CCOCC3)c(C)c12 [MNK-5K],Almost inactive,
COc1cc(F)ccc1Nc1ncnc2sc(C(=O)NCCCN3CCCC3)c(C)c12 [MNK-5M],Good activity,
COc1cc(F)ccc1Nc1ncnc2sc(C(=O)NCCCN3CCOCC3)c(C)c12 [MNK-5O],Good activity,
COc1cc(F)ccc1Nc1ncnc2sc(C(=O)NCC(C)(C)CN(C)C)c(C)c12 [MNK-5P],Moderate activity,
COc1cc(F)ccc1Nc1ncnc2sc(C(=O)NCCc3c[nH]cn3)c(C)c12 [MNK-5S],Moderate activity,
COc1cc(F)ccc1Nc1ncnc2sc(C(=O)NCCc3ccncc3)c(C)c12 [MNK-5U],Moderate activity,
COc1cc(F)ccc1Nc1ncnc2sc(C(=O)N3CCN(C)CC3)c(C)c12 [MNK-5V],Almost inactive,
COc1cc(F)ccc1Nc1ncnc2sc(C(=O)NC3CCCCC3)c(C)c12 [MNK-5W],Moderate activity,
COc1cc(F)ccc1Nc1ncnc2sc(C(=O)N3CCCC3)c(C)c12 [MNK-5X],Almost inactive,
Cc1c(C(=O)OCCO)sc2ncnc(Nc3ccc(F)cc3OC(C)C)c12 [MNK-7F],Weak activity,
Cc1c(C(=O)NCCCO)sc2ncnc(Nc3ccc(F)cc3OC(C)C)c12 [MNK-7I],Partially active,
Cc1c(C(=O)N2CCCCC2)sc2ncnc(Nc3ccc(F)cc3OC(C)C)c12 [MNK-7J],inactive,
Cc1c(C(=O)N2CCOCC2)sc2ncnc(Nc3ccc(F)cc3OC(C)C)c12 [MNK-7K],Almost inactive,
Cc1c(C(=O)OCCCO)sc2ncnc(Nc3ccc(F)cc3OC(C)C)c12 [MNK-7L],Partial activity,
Cc1c(C(=O)NCCCN2CCOCC2)sc2ncnc(Nc3ccc(F)cc3OC(C)C)c12 [MNK-7O],Good activity,
Cc1c(C(=O)NCC(C)(C)CN(C)C)sc2ncnc(Nc3ccc(F)cc3OC(C)C)c12 [MNK-7P],Good activity,
Cc1c(C(=O)OCCc2ccccc2)sc2ncnc(Nc3ccc(F)cc3OC(C)C)c12 [MNK-7T],inactive,
Cc1c(C(=O)NCCc2ccncc2)sc2ncnc(Nc3ccc(F)cc3OC(C)C)c12 [MNK-7U],Good activity,
Cc1c(C(=O)N2CCN(C)CC2)sc2ncnc(Nc3ccc(F)cc3OC(C)C)c12 [MNK-7V],Partial activity,
Cc1c(C(=O)NC2CCCCC2)sc2ncnc(Nc3ccc(F)cc3OC(C)C)c12 [MNK-7W],Partial activity,
Cc1c(C(=O)N2CCCC2)sc2ncnc(Nc3ccc(F)cc3OC(C)C)c12 [MNK-7X],Partial actvitiy,
Cc1c(C(=O)NCCCN2CCCC2)sc2ncnc(Nc3ccc(F)cc3OC(C)C)c12 [MNK-I2],"Good activity, especially against MNK2","induction of adipogenic genes (Cebpα, Cebpβ, Cebpδ, Pparγ, Fas, Acc, Cd36 mRNA) ([3]; 3T3-L1 cells with differentiation cocktail, RT-qPCR): impaired the induction of all of the genes in the adipogenic programme; inhibition of P-eIF4E levels in MNK1-KO MEFs ([4]; 1 h, lowest concentration 0.1 μM): inhibited P-eIF4E levels almost completely at all concentrations tested; selectivity for MNK2 over MNK1 ([4]; comparison of MNK1-KO and MNK2-KO MEFs): selectivity of the MNK-I2 inhibitor for MNK2 over MNK1; inhibition of P-eIF4E / MNK activity ([2]; immunoblot): inhibits P-eIF4E strongly; inhibition of P-eIF4E in MNK2-KO MEFs [5]: weaker inhibitory effect than MNK-I1"
"CC(=O)C1=C(O)C=C2Oc3c(C(N)=O)c(O)cc(O)c3[C@]2(C)C1=O [cercosporamide, (9aS)-8-Acetyl-9,9a-dihydro-1,3,7-trihydroxy-9a-methyl-9-oxo-4-dibenzofurancaboxamide]",,"inhibition of other protein kinases [6]: inhibit other protein kinases in addition to the MNKs; induction of adipogenic genes such as PPARγ (mRNA) ([3]; 10 μM, 3T3-L1 cells): impaired the induction of genes such as PPARγ; lipid accumulation [7]: reduced lipid accumulation"
